Assay results taken from patent publication US20160297828A1, “SPIROCYCLIC COMPOUNDS CONTAINING SPIRO[INDOLYL-3,1'-PYRROLO[3,4-C]PYRROLE] CORE AND SULPHUR-CONTAINING AMINO ACID RESIDUES” (priority 2013, published 2016).
“And” between values parts separate entries of the source, which are not always exact repeats. Identical values can stand only once.

What was measured:
[1] = tested on: rats with intracerebral hemorrhage; test: Neurological deficit (C. P. McGrow stroke-index scale) in rats with intracerebral hemorrhage; format: in vivo; conditions: n = 15
Protocol: (§1) Neuroprotective effect of 3,2′-spiro-pyrrolo-2-oxindole derivative (SI-86 compound) was studied on IUD model of moderate severity modeled under propofol anesthesia (60 mg/kg intraperitoneally (ip)) by autoblood administration into the brain internal capsule (stereotactic coordinates of the projection: H=7.0 mm, L=3.0 mm, A=1.5 mm from bregma) ([…]) (Method for reproduction of intracerebral hemorrhage in rats/O. K. Yarosh, S. V. Kyrychenko, S. P. Halimonchyk [et al.]//Circulation and hemostasis.-2005.-No. 1.-P. 77-81). The chosen model allows to reproduce clinical pattern of […] and is adequate for clinical study of potential neuroprotective agents.
(§2) As comparators the following drugs were used: mexydol (“Mexydol” UC Pharmasoft, Russia), 100 mg/kg; citicoline (“Somazina” Ferrer International, SA, Spain), 250 mg/kg; aktovegin (“Aktovegin”, Nycomed, Austria), 16 mg/kg pyracetam (“Pyracetam” Darnitsa, Ukraine), 400 mg/kg. According to the latest clinical guidelines regarding the treatment of patients with CVA approved by the Ministry of Health of Ukraine (Order No. 602 dated 3 Aug. 2012), all these drugs are allowed to be included into schemes for intensive patients therapy with CVA as neuroprotective agents. They were used at recommended doses for preclinical studies (McGrow C. P. Experimental Cerebral Infarction Effects of Pentobarbital in Mongolian Gerbils/C. P. McGrow//Arch. Neurol.-1977.-Vol. 34, No. 6.-P. 334-336). Experimental therapy of acute cerebral ischemia with SI-86 compound and comparator started 1 hour after IUD once a day for 21 days. The SI-86 derivative was investigated in conventionally effective dose of 10 mg/kg […] (iv)-dose that according to the results of our previous study provides maximum antihypoxic activity of SI-86 compound. Reference drugs were injected intraperitoneally (ip). Rats of control pathology group were injected by autoblood and as therapy 0.9% NaCI solution was administered calculated for 2 ml/kg […].
Neurological deficit in animals with acute CVA respectively in acute (4th day) and recovery (21 st day) periods was measured on C. P. McGrow stroke-index scale. The state severity was determined by amount of relevant points: to 3 points-mild, 3 to 7 points-average, above 7 points-severe degree. Pareses, paralyses of limbs, tremors, circus movement, ptoses, lateral positions, ability of rats to be maintained at the core of 15 cm diameter, rotating at the rate of 3 rpm were noted. The animals were tested daily by displaying the amount of points:
one-sided semi-ptosis—0.5 points; one-sided ptosis—1 point; tremor—0.5 points; circus movements—0.5 points; pareses of limbs (for each limb)—1 point; paralyses of limbs (for each limb)—2 points; lateral position—3 points; disability to maintain on rotating rod during 4 minutes—3 points.

[2] = tested on: rats with intracerebral hemorrhage; test: Conditioned response of passive avoidance (CRPA) in rats with intracerebral hemorrhage; format: in vivo; conditions: 21st day, n = 15; for Latent period for entrance into dark compartment, prior study: SI-86 10 mg/kg iv, mexydol 100, citocoline 250, actovegin 16, pyracetam 400 mg/kg ip
Protocol: as §1, §2
(§3) Evaluation of the ability of animals to learn and memorize of aversive stimulus was examined in the test of conditioned response of passive avoidance (CRPA). The technique is based on innate rat instinct to limited shadowy space. The study in rats was conducted in two-compartment unit consisted of two sections—light and dark. An animal was arranged into light compartment, fixing latency time for entering into the dark compartment, wherein rat received current irritation and ran in the light compartment. CRPA retention was tested every other day under latency time change of rat entering into the dark compartment. Also the number of animals was noted not fully entered the dark chamber. Cerebroprotective efficiency criteria of studied compounds were also animal death term (days) and their mortality rate (in %).

11β-corticosterone = 11β-corticosterone level in venous blood of rats with bilateral carotid occlusion (ELISA); format: in vivo, Wistar rats; conditions: for dynamics in percents in relation to control pathology group / dynamics in percents in relation to the group of pseudo-operated animals / 11β-corticosterone level in venous blood: BCO
Protocol: The neuroprotective effect of 3,2′-spiro-pyrrolo-2-oxindole derivative (SI-86 compound) was studied in Wistar rats on a model of cerebrovascular accident (CVA) of ischemic type in archencephalic pool forming bilateral carotid occlusion (BCO) by carotid artery ligation. The ligations for common carotid arteries was imposed under propofol anesthesia at a dose of 60 mg/kg intraperitoneally (ip), using surgical access to the front of the neck cutting through its white line. The chosen model allows to reproduce the clinical pattern of ischemic stroke and is adequate for clinical study of potential neuroprotective substances (Drug discovery and Evaluation: pharmacological assays/H. Gerhard Vogel (ed.).-2nd ed. 1453p.).
The derivative of 3,2′-spiro-pyrrolo-2-oxindole was investigated in conventionally effective dose of 10 mg/kg […] (iv)—dose which is provided maximum antihypoxic activity of SI-86 compound by the results of our previous study. The reference drugs were injected intraperitoneally (ip). BCO was applied to the rats of control pathology and 0.9% NaCI solution was administered as therapy calculated for 2 ml/kg ip.
Pseudo-operated rats were exposed to all interventions (anesthesia, skin incision, dissection of vessels) except arteries ligation that leveled traumatic impact of experimental conditions.
To determine a corticosterone level (species-specific cortisol analogue in rats, which is also a substrate for 11β-HSD1) in the corresponding period (4 th and 21 st CVA day) in rat by sagittal sinus puncture, blood was sampled (0.2-0.4 ml). The cortisol level was measured by ELISA using a CORTICOSTERONEE KIT set (Germany) on the instrument of the company “Hipson” (Czech Republic).

[3] = tested on: neuron-specific enolase (NSE); test: Neuron-specific enolase (NSE) activity in rats with bilateral carotid occlusion (ELISA); format: in vivo; conditions: BCO; for NSE activity (dynamics of neurodestructive changes): n = 7
Protocol: The derivative of 3,2′-spiro-pyrrolo-2-oxindole was studied in conventionally effective dose of 10 mg/kg […] (iv)—dose that by the results of our previous study provided maximum antihypoxic activity of the SI-86compound. Reference drugs were injected intraperitoneally (ip). […] BCO was made to rats of control pathology and as therapy 0.9% NaCI solution was administered calculated for 2 ml/kg ip.
Pseudooperative rats were exposed to all interventions (anesthesia, skin incision, dissection of vessels) except arteries ligation that leveled traumatic effect of experimental conditions.
To determine neurospecific enolase, specific marker of cerebral ischemia,—to the period (4 th and 21 st day of CVA) in rat's blood was sampled by sagittal sinus puncture (0.2-0.4 ml). NSE activity was measured by ELISA using a set NSE EIA KIT (DAI, USA) on the instrument of the company “Hipson” (Czech Republic).

[4] = tested on: neuron-specific enolase (NSE); test: Neuron-specific enolase (NSE) activity in rats with intracerebral hemorrhage (ELISA); format: in vivo; conditions: for NSE activity (dynamics of neurodestructive changes): acute cerebral hemorrhage, n = 7; for enzyme activity decreased in relation to the control pathology group: hemorrhage
Protocol: The derivative of 3,2′-spiro-pyrrolo-2-oxindole was investigated in conventionally effective dose of 10 mg/kg […] (iv)—dose that according to the results of our previous studies provided maximum antihypoxic activity of SI-86 compound. Reference drugs were injected intraperitoneally (ip). […] Autoblood was injected to rats with control pathology and 0.9% NaCI solution was administered as therapy calculated for 2 ml/kg ip.
Psevdooperated rats were exposed to all interventions (anesthesia, craniotomy) with the exception of autoblood administration that leveled traumatic impact of experimental conditions.
To determine neuron-specific enolase, the specific marker of cerebral ischemia,—for corresponding period (4 th and 21 st day of CVA) in rats, blood was sampled by sagittal sinus puncture (0.2-0.4 ml). NSE activity was measured by ELISA using a set NSE EIA KIT (DAI, USA) on the instrument of the company “Hipson” (Czech Republic).

[5] = tested on: rats with intracerebral hemorrhage; test: Lethality of rats with intracerebral hemorrhage of average severity; format: in vivo
Protocol: The chosen model allows to reproduce clinical pattern of […] and is adequate for clinical study of potential neuroprotective agents.
As comparators the following drugs were used: mexydol (“Mexydol” UC Pharmasoft, Russia), 100 mg/kg; citicoline (“Somazina” Ferrer International, SA, Spain), 250 mg/kg; aktovegin (“Aktovegin”, Nycomed, Austria), 16 mg/kg pyracetam (“Pyracetam” Darnitsa, Ukraine), 400 mg/kg. According to the latest clinical guidelines regarding the treatment of patients with CVA approved by the Ministry of Health of Ukraine (Order No. 602 dated 3 Aug. 2012), all these drugs are allowed to be included into schemes for intensive patients therapy with CVA as neuroprotective agents. They were used at recommended doses for preclinical studies (McGrow C. P. Experimental Cerebral Infarction Effects of Pentobarbital in Mongolian Gerbils/C. P. McGrow//Arch. Neurol.-1977.-Vol. 34, No. 6.-P. 334-336). Experimental therapy of acute cerebral ischemia with SI-86 compound and comparator started 1 hour after IUD once a day for 21 days. […] Reference drugs were injected intraperitoneally (ip). Rats of control pathology group were injected by autoblood and as therapy 0.9% NaCI solution was administered calculated for 2 ml/kg iv.
Pseudo-operated rats were exposed to all interventions (anesthesia, craniotomy) excluding autoblood administration that leveled traumatic impact of experimental conditions.
as §3
Quantitative data were processed using statistical StatPlus 2009 processing. The statistical significance of differences was assessed by Fisher's angular transformation (lethality outcome), also parametric t Student criterion were used in case of normal distribution of variation series, nonparametric W White criterion—in its absence.

[6] = day 4, SI-86 10 mg/kg iv, mexydol 100, citocoline 250, actovegin 16, pyracetam 400 mg/kg ip
[7] = day 4, SI-86 10 mg/kg iv, citocoline 250 mg/kg ip
[8] = 12 h, SI-86 10 mg/kg iv, mexydol 100, citocoline 250, actovegin 16, pyracetam 400 mg/kg

C[N+](C)(C)CCOP(=O)(O)OP(=O)([O-])OC[C@H]1O[C@@H](n2ccc(N)nc2=O)[C@H](O)[C@@H]1O [citocoline, reference compound]
neurological deficit, average point under C. P. McGrow scale [1, 6]: 5.0 points and 5.00 ± 0.18°*^#$ points
neurological deficit, average point under C. P. McGrow scale ([1]; day 21, same doses): 3.1 points and 3.10 ± 0.15°*^#&$ points
Latent period for entrance into dark compartment, prior study [2]: 12.50 ± 0.75°*^# s
dynamics in percents in relation to control pathology group (11β-corticosterone; day 4): [−41.7%]
dynamics in percents in relation to the group of pseudo-operated animals (11β-corticosterone; day 4): (+126.9%)
11β-corticosterone level in venous blood (11β-corticosterone; [7]): 272.79 ± 1.95°* ng/ml
dynamics in percents in relation to control pathology group (11β-corticosterone; day 21): [−30.2%]
dynamics in percents in relation to the group of pseudo-operated animals (11β-corticosterone; day 21): (+152.7%)
11β-corticosterone level in venous blood (11β-corticosterone; day 21, same doses): 235.52 ± 7.82°*^• ng/ml
corticosterone concentration in sagittal sinus blood decreased in relation to the control pathology group (11β-corticosterone; after 96 hours): 41.7%
corticosterone concentration in sagittal sinus blood decreased in relation to the control pathology group (11β-corticosterone; after 21 days): 30.2%
enzyme activity decreased in relation to the control pathology group ([3]; 96 hours): 1.27 times
enzyme activity decreased in relation to the control pathology group ([3]; 21 days): 2.03 times
NSE activity (dynamics of neurodestructive changes) [3, 7]: 0.972 ± 0.010
NSE activity (dynamics of neurodestructive changes) ([3]; day 21, same doses): 0.385 ± 0.010
NSE activity (dynamics of neurodestructive changes) [4, 7]: 1.292 ± 0.069
NSE activity (dynamics of neurodestructive changes) ([4]; day 21, same doses): 0.309 ± 0.05
enzyme activity decreased in relation to the control pathology group ([4]; 96 hours): 2.2 times
enzyme activity decreased in relation to the control pathology group ([4]; 21 days): 3.1 times

NC(=O)CN1CCCC1=O [pyracetam]
Lethality, % [5, 8]: 4.9%
Lethality, abs. [5, 8]: 2
Lethality, % ([5]; 24 h, same doses): 14.6%
Lethality, abs. ([5]; 24 h, same doses): 6
Lethality, % ([5]; 48 h, same doses): 22%
Lethality, abs. ([5]; 48 h, same doses): 9
Lethality, % ([5]; 72 h, same doses): 24.4%
Lethality, abs. ([5]; 72 h, same doses): 10
Lethality, % ([5]; 96 h, same doses): 27.5%
Lethality, abs. ([5]; 96 h, same doses): 11
reduction of mortality in rats at the end of the observation period relative to control ([5]; within 4 days of therapy, same doses): no significant impact
neurological deficit, average point under C. P. McGrow scale [1, 6]: 6.90 ± 0.39° points
neurological deficit, average point under C. P. McGrow scale ([1]; day 21, same doses): 4.1 points and 4.10 ± 0.15°* points
Latent period for entrance into dark compartment, prior study [2]: 15.90 ± 0.51°* s
Latent period for entrance into dark compartment, 24 hours after study ([2]; same doses): 71.10 ± 2.21 s
